Test results published in US20250041429A1, “COMPOUND HAVING BTK PROTEIN DEGRADATION ACTIVITY, AND MEDICAL USES THEREOF” (UBIX THERAPEUTICS, INC., priority 2021, published 2025).

Biological target: T1, BTK protein (Homo sapiens, UniProt Q06187)
T1 construct: endogenous in cells; host or cells: TMD-8 cells
Experiment: Measurement of BTK protein degradation ability in TMD-8 cells (Western blotting)
Format: cell-based
Settings: harvested after 24 hours; for BTK degradation (%) 1 nM: compound 1 nM; for BTK degradation (%) 10 nM: compound 10 nM; for BTK degradation (%) 100 nM: compound 100 nM
Summary of the method: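 TMD-8 cells (1×10^6/mL) were treated for 24 h with compound at 0.1, 1, 10 μM or 0.0001–0.1 μM, with DMSO as vehicle control. RIPA lysates were normalized by BCA assay. BTK was detected by Western blot with anti-BTK, using GAPDH or β-actin as loading controls, and imaged on LI-COR Odyssey.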

T1 sequence (Q06187 whole entry): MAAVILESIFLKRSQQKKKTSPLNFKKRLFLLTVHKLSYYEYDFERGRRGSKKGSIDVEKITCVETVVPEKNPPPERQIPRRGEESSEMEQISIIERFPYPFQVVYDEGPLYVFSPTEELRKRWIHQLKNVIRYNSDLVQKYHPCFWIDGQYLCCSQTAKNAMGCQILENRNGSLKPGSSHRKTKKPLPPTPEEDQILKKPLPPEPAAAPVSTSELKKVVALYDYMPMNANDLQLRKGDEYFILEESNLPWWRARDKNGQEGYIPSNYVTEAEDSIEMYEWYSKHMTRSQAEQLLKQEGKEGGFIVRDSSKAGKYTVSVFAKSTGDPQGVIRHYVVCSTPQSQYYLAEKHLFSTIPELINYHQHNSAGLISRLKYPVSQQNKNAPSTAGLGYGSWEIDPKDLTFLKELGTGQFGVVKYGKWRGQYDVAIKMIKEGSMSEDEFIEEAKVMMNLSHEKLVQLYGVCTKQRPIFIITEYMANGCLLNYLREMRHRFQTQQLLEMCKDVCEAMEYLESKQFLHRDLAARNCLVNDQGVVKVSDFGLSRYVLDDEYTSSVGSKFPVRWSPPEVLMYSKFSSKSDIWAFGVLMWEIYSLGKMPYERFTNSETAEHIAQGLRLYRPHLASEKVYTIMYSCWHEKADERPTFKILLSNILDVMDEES

| BTK degradation (%) 1 nM | BTK degradation (%) 10 nM | BTK degradation (%) 100 nM | SMILES |
| --- | --- | --- | --- |
| 38.7% | 95.0% | 99.7% | Cc1cc(-c2ccnc(Nc3ccc(N4CCN(CC5CCN(c6cccc(NC7CCC(=O)NC7=O)c6)CC5)CC4)cc3)n2)ccc1CNC(=O)N1CC(OC(C)C)C1 (stereo not drawn) [Example 54, N-(4-(2-((4-(4-((1-(3-((2,6-dioxopiperidin-3-yl)amino)phenyl)piperidin-4-yl)methyl)piperazin-1-yl)phenyl)amino)pyrimidin-4-yl)-2-methylbenzyl)-3-isopropoxyazetidine-1-carboxamide] |
| 37.7% | 94.7% | 99.7% | Cc1cc(-c2ccnc(Nc3ccc(N4CCN(CC5CCN(c6ccc(NC7CCC(=O)NC7=O)cc6)CC5)CC4)cc3)n2)ccc1CNC(=O)N1CC(OC(C)C)C1 (stereo not drawn) [Example 55, N-(4-(2-((4-(4-((1-(4-((2,6-dioxopiperidin-3-yl)amino)phenyl)piperidin-4-yl)methyl)piperazin-1-yl)phenyl)amino)pyrimidin-4-yl)-2-methylbenzyl)-3-isopropoxyazetidine-1-carboxamide] |
| 13.7% | 91.3% | 99.7% | Cc1cc(-c2ccnc(Nc3ccc(C4CCN(CC5CCN(c6ccc(NC7CCC(=O)NC7=O)cc6)CC5)CC4)cc3)n2)ccc1CNC(=O)N1CC(OC(C)C)C1 (stereo not drawn) [Example 56, N-(4-(2-((4-(1-((1-(4-((2,6-dioxopiperidin-3-yl)amino)phenyl)piperidin-4-yl)methyl)piperidin-4-yl)phenyl)amino)pyrimidin-4-yl)-2-methylbenzyl)-3-isopropoxyazetidine-1-carboxamide] |
| 54.0% | 95.0% | 99.5% | Cc1cc(-c2ccnc(Nc3ccc(N4CCN(CC5CCN(c6cccc(NC7CCC(=O)NC7=O)c6)CC5)CC4)cc3)n2)ccc1CNC(=O)c1cnn(C(C)C)c1 (stereo not drawn) [Example 57, N-(4-(2-((4-(4-((1-(3-((2,6-dioxopiperidin-3-yl)amino)phenyl)piperidin-4-yl)methyl)piperazin-1-yl)phenyl)amino)pyrimidin-4-yl)-2-methylbenzyl)-1-isopropyl-1H-pyrazole-4-carboxamide] |
| 62.0% | 97.5% | 99.0% | Cc1cc(-c2ccnc(Nc3ccc(N4CCN(CC5CCN(c6ccc(NC7CCC(=O)NC7=O)cn6)CC5)CC4)cc3)n2)ccc1CNC(=O)c1cnn(C(C)C)c1 (stereo not drawn) [Example 58, N-(4-(2-((4-(4-((1-(5-((2,6-dioxopiperidin-3-yl)amino)pyridin-2-yl)piperidin-4-yl)methyl)piperazin-1-yl)phenyl)amino)pyrimidin-4-yl)-2-methylbenzyl)-1-isopropyl-1H-pyrazole-4-carboxamide] |
| 72.0% | 97.0% | 99.0% | Cc1cc(-c2ccnc(Nc3ccc(N4CCN(CC5CCN(c6cccc(NC7CCC(=O)NC7=O)c6)CC5)CC4)cc3)n2)ccc1CNC(=O)c1cnn(C(C)(C)C)c1 (stereo not drawn) [Example 59, 1-(tert-butyl)-N-(4-(2-((4-(4-((1-(3-((2,6-dioxopiperidin-3-yl)amino)phenyl)piperidin-4-yl)methyl)piperazin-1-yl)phenyl)amino)pyrimidin-4-yl)-2-methylbenzyl)-1H-pyrazole-4-carboxamide] |
| 58.0% | 96.5% | 99.5% | Cc1cc(-c2ccnc(Nc3ccc(N4CCN(CC5CCN(c6ccc(NC7CCC(=O)NC7=O)cn6)CC5)CC4)cc3)n2)ccc1CNC(=O)c1cnn(C(C)(C)C)c1 (stereo not drawn) [Example 60, 1-(tert-butyl)-N-(4-(2-((4-(4-((1-(5-((2,6-dioxopiperidin-3-yl)amino)pyridin-2-yl)piperidin-4-yl)methyl)piperazin-1-yl)phenyl)amino)pyrimidin-4-yl)-2-methylbenzyl)-1H-pyrazole-4-carboxamide] |
| 66.5% | 95.5% | 99.0% | Cc1cc(-c2ccnc(Nc3ccc(N4CCN(CC5CCN(c6cccc(NC7CCC(=O)NC7=O)c6)CC5)CC4)cc3)n2)ccc1CNC(=O)c1cn(C(C)(C)C)nn1 (stereo not drawn) [Example 61, 1-(tert-butyl)-N-(4-(2-((4-(4-((1-(3-((2,6-dioxopiperidin-3-yl)amino)phenyl)piperidin-4-yl)methyl)piperazin-1-yl)phenyl)amino)pyrimidin-4-yl)-2-methylbenzyl)-1H-1,2,3-triazole-4-carboxamide] |
| 57.0% | 97.5% | 100.0% | Cc1cc(-c2ccnc(Nc3ccc(N4CCN(CC5CCN(c6ccc(NC7CCC(=O)NC7=O)cn6)CC5)CC4)cc3)n2)ccc1CNC(=O)c1cn(C(C)(C)C)nn1 (stereo not drawn) [Example 62] |
| 29.0% | 83.0% | 97.5% | Cc1cc(-c2ccnc(Nc3ccc(CN4CCN(CC5CCN(c6cccc(OC7CCC(=O)NC7=O)c6)CC5)CC4)cc3)n2)ccc1CNC(=O)N1CC(OC(C)C)C1 (stereo not drawn) [Example 63, N-(4-(2-((4-((4-((1-(3-((2,6-dioxopiperidin-3-yl)oxy)phenyl)piperidin-4-yl)methyl)piperazin-1-yl)methyl)phenyl)amino)pyrimidin-4-yl)-2-methylbenzyl)-3-isopropoxyazetidine-1-carboxamide] |
| 43.0% | 92.5% | 98.5% | Cc1cc(-c2ccnc(Nc3ccc(CN4CCN(CC5CCN(c6cccc(NC7CCC(=O)NC7=O)c6)CC5)CC4)cc3)n2)ccc1CNC(=O)N1CC(OC(C)C)C1 (stereo not drawn) [Example 64, N-(4-(2-((4-((4-((1-(3-((2,6-dioxopiperidin-3-yl)amino)phenyl)piperidin-4-yl)methyl)piperazin-1-yl)methyl)phenyl)amino)pyrimidin-4-yl)-2-methylbenzyl)-3-isopropoxyazetidine-1-carboxamide] |
| 32.5% | 92.0% | 99.0% | Cc1cc(-c2ccnc(Nc3ccc(N4CCN(CC5CCN(c6cccc(N7CCC(=O)NC7=O)c6)CC5)CC4)cc3)n2)ccc1CNC(=O)N1CC(OC(C)C)C1 [Example 65, N-(4-(2-((4-(4-((1-(3-(2,4-dioxotetrahydropyrimidin-1 (2H)-yl)phenyl)piperidin-4-yl)methyl)piperazin-1-yl)phenyl)amino)pyrimidin-4-yl)-2-methylbenzyl)-3-isopropoxyazetidine-1-carboxamide] |
| 28.0% | 91.5% | 98.5% | Cc1cc(-c2ccnc(Nc3ccc(N4CCN(CC5CCN(c6ccc(N7CCC(=O)NC7=O)cc6)CC5)CC4)cc3)n2)ccc1CNC(=O)N1CC(OC(C)C)C1 [Example 66, N-(4-(2-((4-(4-((1-(4-(2,4-dioxotetrahydropyrimidin-1 (2H)-yl)phenyl)piperidin-4-yl)methyl)piperazin-1-yl)phenyl)amino)pyrimidin-4-yl)-2-methylbenzyl)-3-isopropoxyazetidine-1-carboxamide] |
| 13.5% | 77.0% | 98.0% | Cc1cc(-c2ccnc(Nc3ccc(CN4CCN(CC5CCN(c6cccc(N7CCC(=O)NC7=O)c6)CC5)CC4)cc3)n2)ccc1CNC(=O)N1CC(OC(C)C)C1 [Example 67, N-(4-(2-((4-((4-((1-(3-(2,4-dioxotetrahydropyrimidin-1 (2H)-yl)phenyl)piperidin-4-yl)methyl)piperazin-1-yl)methyl)phenyl)amino)pyrimidin-4-yl)-2-methylbenzyl)-3-isopropoxyazetidine-1-carboxamide] |
| 22.5% | 88.0% | 99.0% | Cc1cc(-c2ccnc(Nc3ccc(CN4CCN(CC5CCN(c6ccc(N7CCC(=O)NC7=O)cc6)CC5)CC4)cc3)n2)ccc1CNC(=O)N1CC(OC(C)C)C1 [Example 68, N-(4-(2-((4-((4-((1-(4-(2,4-dioxotetrahydropyrimidin-1 (2H)-yl)phenyl)piperidin-4-yl)methyl)piperazin-1-yl)methyl)phenyl)amino)pyrimidin-4-yl)-2-methylbenzyl)-3-isopropoxyazetidine-1-carboxamide] |
| 61.5% | 95.0% | 99.5% | Cc1cc(-c2ccnc(Nc3ccc(CN4CCN(CC5CCN(c6cccc(NC7CCC(=O)NC7=O)c6)CC5)CC4)cc3)n2)ccc1CNC(=O)c1cn(C(C)(C)C)nn1 (stereo not drawn) [Example 69, 1-(tert-butyl)-N-(4-(2-((4-((4-((1-(3-((2,6-dioxopiperidin-3-yl)amino)phenyl)piperidin-4-yl)methyl)piperazin-1-yl)methyl)phenyl)amino)pyrimidin-4-yl)-2-methylbenzyl)-1H-1,2,3-triazole-4-carboxamide] |
| 67.0% | 97.5% | 99.5% | Cc1cc(-c2ccnc(Nc3ccc(N4CCN(CC5CCN(c6cccc(N7CCC(=O)NC7=O)c6)CC5)CC4)cc3)n2)ccc1CNC(=O)c1cn(C(C)(C)C)nn1 [Example 70, 1-(tert-butyl)-N-(4-(2-((4-(4-((1-(3-(2,4-dioxotetrahydropyrimidin-1 (2H)-yl)phenyl)piperidin-4-yl)methyl)piperazin-1-yl)phenyl)amino)pyrimidin-4-yl)-2-methylbenzyl)-1H-1,2,3-triazole-4-carboxamide] |
| 80.5% | 98.0% | 99.5% | Cc1cc(-c2ccnc(Nc3ccc(N4CCN(CC5CCN(c6ccc(N7CCC(=O)NC7=O)cc6)CC5)CC4)cc3)n2)ccc1CNC(=O)c1cn(C(C)(C)C)nn1 [Example 71, 1-(tert-butyl)-N-(4-(2-((4-(4-((1-(4-(2,4-dioxotetrahydropyrimidin-1 (2H)-yl)phenyl)piperidin-4-yl)methyl)piperazin-1-yl)phenyl)amino)pyrimidin-4-yl)-2-methylbenzyl)-1H-1,2,3-triazole-4-carboxamide] |
